Results: US20230159931A1, “TARGETING THE PALMOTYLATION/DEPALMOTYLATION CYCLE TO TREAT INFLAMMATORY DISEASES” (CORNELL UNIVERSITY, priority 2020, published 2023)

Target: T1, APT2 (Homo sapiens, UniProt O95372)
T1 construct: treated with LYPLA2 siRNA or 20 μM of ML349 for 36 h before Alk14 labelling; endogenous in cells; host or cells: DHHC7-knockout HEK293T cells re-expressing HA-DHHC7 and Flag-STAT3
Experiment: STAT3 palmitoylation by Alk14 labelling and in-gel fluorescence after APT2 inhibition or knockdown
Format: cell-based
Details: DHHC7-knockout HEK293T cells reintroduced with HA-DHHC7 and Flag-STAT3; LYPLA2 siRNA or 20 μM of ML349 for 36 h
Source text: FIGS. 2A-2H. APT2 is a depalmitoylase of STAT3 and palmitoylation/depalmitoylation promotes p-STAT3 nuclear localization. (A) C108 is the major palmitoylation site of STAT3. HEK293T cells were transfected with HA-DHHC7 and Flag-STAT3 (wild-type or mutants) and labelled with Alk14. STAT3 was pulled down and subjected to Alk14 labelling and western blot analyses. (B) Left, distribution of wild-type or C108S mutants of STAT3 and p-STAT3 in the subcellular fractions of DHHC7-knockout HEK293T cells into which DHHC7 or DHHS7 were reintroduced. Right, quantification of the relative p-STAT3 levels. (C) The subcellular localization of STAT3 and p-STAT3 was analysed using confocal imaging after different EGFP-STAT3 constructs and HA-tagged DHHC7 were transfected into DHHC7-knockout HEK293T cells. […] (D) In HEK293T cells, overexpression of wild-type APT2—but not the C2S or S122A mutants—decreased the palmitoylation level of Flag-STAT3 as determined by Alk14 labelling. […] The palmitoylation of STAT3 was determined by in-gel fluorescence (left) and quantified (right). […] DHHC7-knockout HEK293T cells were reintroduced with HA-DHHC7 and Flag-STAT3, and treated with LYPLA2 siRNA or 20 μM of ML349 for 36 h before Alk14 labelling and in-gel fluorescence detection. […] Right, quantification of the relative STAT3 and p-STAT3 levels in these fractions. […] Right, quantification of the relative STAT3 levels in these fractions. […]

T1 sequence (O95372 whole entry): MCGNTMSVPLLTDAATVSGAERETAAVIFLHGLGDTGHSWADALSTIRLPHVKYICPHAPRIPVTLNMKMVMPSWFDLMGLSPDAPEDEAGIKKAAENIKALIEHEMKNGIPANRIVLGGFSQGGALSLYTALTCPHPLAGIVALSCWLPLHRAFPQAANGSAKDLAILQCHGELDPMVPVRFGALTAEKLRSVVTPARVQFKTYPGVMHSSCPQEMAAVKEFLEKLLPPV

COc1ccc(N2CCN(C(=O)c3cc4c(s3)-c3ccccc3S(=O)(=O)C4)CC2)cc1 [ML349]
STAT3 palmitoylation: increased STAT3 palmitoylation
